{"source": "patent US11174248B2", "about": "“Indazolyl-spiro[2.3]hexane-carbonitrile derivatives as LRRK2 inhibitors, pharmaceutical compositions, and uses thereof” (Merck Sharp & Dohme Corp., priority 2017, dated 2021)", "data": [{"target": "GST-tagged truncated human mutant G2019S LRRK2 (Homo sapiens (Human), UniProt Q5S007, G2019S)", "sequence (Q5S007 970-2527 G2019S)": "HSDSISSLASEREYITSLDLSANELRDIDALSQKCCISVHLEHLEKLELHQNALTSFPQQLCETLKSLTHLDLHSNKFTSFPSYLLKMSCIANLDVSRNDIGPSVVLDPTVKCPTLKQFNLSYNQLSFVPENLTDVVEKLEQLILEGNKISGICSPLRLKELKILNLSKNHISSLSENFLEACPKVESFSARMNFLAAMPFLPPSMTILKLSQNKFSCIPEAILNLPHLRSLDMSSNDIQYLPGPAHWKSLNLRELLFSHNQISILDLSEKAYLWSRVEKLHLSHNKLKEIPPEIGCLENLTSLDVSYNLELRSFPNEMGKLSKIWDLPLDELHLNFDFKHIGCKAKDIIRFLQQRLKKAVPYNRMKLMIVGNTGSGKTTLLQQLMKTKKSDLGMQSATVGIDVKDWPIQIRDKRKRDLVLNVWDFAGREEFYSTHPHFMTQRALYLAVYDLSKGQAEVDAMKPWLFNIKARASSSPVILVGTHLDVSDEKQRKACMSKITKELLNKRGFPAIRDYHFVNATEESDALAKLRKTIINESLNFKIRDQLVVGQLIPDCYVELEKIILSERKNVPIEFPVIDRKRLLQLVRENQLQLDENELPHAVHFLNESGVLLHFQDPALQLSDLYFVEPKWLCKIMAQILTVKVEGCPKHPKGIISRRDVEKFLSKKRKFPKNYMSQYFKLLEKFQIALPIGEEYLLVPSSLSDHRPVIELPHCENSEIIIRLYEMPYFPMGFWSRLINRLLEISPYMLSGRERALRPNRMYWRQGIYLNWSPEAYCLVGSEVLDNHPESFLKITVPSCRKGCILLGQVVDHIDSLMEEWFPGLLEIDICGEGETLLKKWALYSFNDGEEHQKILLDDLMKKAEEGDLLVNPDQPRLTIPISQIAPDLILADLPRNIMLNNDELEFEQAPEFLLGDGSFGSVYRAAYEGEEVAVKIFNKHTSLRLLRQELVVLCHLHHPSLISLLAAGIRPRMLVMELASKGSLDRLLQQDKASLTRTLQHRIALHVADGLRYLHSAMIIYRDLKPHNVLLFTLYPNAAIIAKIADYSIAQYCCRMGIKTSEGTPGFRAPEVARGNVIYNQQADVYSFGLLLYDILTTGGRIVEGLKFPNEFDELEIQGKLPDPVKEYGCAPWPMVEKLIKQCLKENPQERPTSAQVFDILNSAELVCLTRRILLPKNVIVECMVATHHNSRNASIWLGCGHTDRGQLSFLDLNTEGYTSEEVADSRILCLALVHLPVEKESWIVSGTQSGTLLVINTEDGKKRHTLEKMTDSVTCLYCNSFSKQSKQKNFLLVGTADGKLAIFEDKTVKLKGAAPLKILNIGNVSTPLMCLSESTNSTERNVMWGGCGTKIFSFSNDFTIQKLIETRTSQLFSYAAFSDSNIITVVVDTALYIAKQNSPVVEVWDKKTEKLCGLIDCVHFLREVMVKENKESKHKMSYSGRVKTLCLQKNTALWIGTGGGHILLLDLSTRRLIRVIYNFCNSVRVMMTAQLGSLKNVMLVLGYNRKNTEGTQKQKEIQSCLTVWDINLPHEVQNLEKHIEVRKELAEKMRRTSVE", "experiment": "LRRK2 Km ATP LanthaScreen Assay", "format": "biochemical", "details": "134 μM ATP (Km ATP); fluorescein-labeled LRRKtide substrate; mean IC50 values", "description": "Unless otherwise noted, all LRRK2 IC50 data presented in tables refers to the LRRK2 Km ATP LanthaScreen™ Assay that is described in the Biological Assay section.\nBiological Assay: LRRK2 Km ATP LanthaScreen™ Assay\nThe LRRK2 kinase activity reported herein as IC50 values was determined with LanthaScreen™ technology from Life Technologies Corporation (Carlsbad, Calif.) using GST-tagged truncated human mutant G2019S LRRK2 in the presence of the fluorescein-labeled peptide substrate LRRKtide, also from Life Technologies. The data presented for the Km ATP LanthaScreen™ Assay represents mean IC50 values based on several test results and may have reasonable deviations depending on the specific conditions and reagents used. Assays were performed in the presence of 134 μM ATP (Km ATP). Upon completion, the assay was stopped and phosphorylated substrate detected with a terbium (Tb)-labeled anti-pERM antibody (cat. no. PV4898). The compound dose response was prepared by diluting a 10 mM stock of compound to a maximum concentration of 9.99 μM in 100% dimethylsulfoxide followed by custom fold serial dilution in dimethylsulfoxide nine times. Twenty nanoliters of each dilution was spotted via a Labcyte Echo onto a 384-well black-sided plate (Corning 3575) followed by 15 μl of a 1.25 nM enzyme solution in 1× assay buffer (50 mM Tris pH 8.5, 10 mM MgCl2, 0.01% Brij-35, 1 mM EGTA, 2 mM dithiothreitol, 0.05 mM sodium orthovanadate) Following a 15-minute incubation at room temperature, the kinase reaction was started with the addition of 5 μl of 400 nM fluorescein-labeled LRRKtide peptide substrate and 134 μM ATP solution in 1× assay buffer. The reaction was allowed to progress at ambient temperature for 90 minutes. The reaction was then stopped by the addition of 20 μl of TR-FRET Dilution Buffer (Life Technologies, Carlsbad, Calif.) containing 2 nM Tb-labeled anti-phospho LRRKtide antibody and 10 mM EDTA (Life Technologies, Carlsbad, Calif.). After an incubation of 1 hour at room temperature, the plate was read on an EnVision multimode plate reader (Perkin Elmer, Waltham, Mass.) with an excitation wavelength of 337 nm (Laser) and a reading emission at both 520 and 495 nm. Compound IC50s were interpolated from nonlinear regression best fits of the log of the final compound concentration, plotted as a function of the 520/495-nm emission ratio using Activity base. Abase uses a 4 parameter (4P) logistic fit based on the Levenberg-Marquardt algorithm.", "units": {"IC50": "nM"}, "values": [{"smiles": "CC(C)(O)[C@@H]1CCN(c2cc(-n3ncc4ccc(C5(C#N)CC6(CC6)C5)cc43)ncn2)C1", "note": "[Example 11, (R)-5-(1-(6-(3-(2-hydroxypropan-2-yl)pyrrolidin-1-yl)pyrimidin-4-yl)-1H-indazol-6-yl)spiro[2.3]hexane-5-carbonitrile]", "IC50": 0.9}, {"smiles": "CC(C)(O)C12CC(C1)N(c1cc(-n3ncc4ccc(C5(C#N)CC6(CC6)C5)cc43)ncn1)C2", "note": "[Example 12, 5-(1-(6-(4-(2-hydroxypropan-2-yl)-2-azabicyclo[2.1.1]hexan-2-yl)pyrimidin-4-yl)-1H-indazol-6-yl)spiro[2.3]hexane-5-carbonitrile]", "IC50": 2.6}, {"smiles": "C[C@H]1CN(c2cc(-n3ncc4ccc(C5(C#N)CC6(CC6)C5)cc43)ncn2)CCN1C1COC1", "note": "[Example 13, (S)-5-(1-(6-(3-methyl-4-(oxetan-3-yl)piperazin-1-yl)pyrimidin-4-yl)-1H-indazol-6-yl)spiro[2.3]hexane-5-carbonitrile]", "IC50": 1}, {"smiles": "N#CC1(c2ccc3cnn(-c4cc(N5CCO[C@H](CO)C5)ncn4)c3c2)CC2(CC2)C1", "note": "[Example 14, (S)-5-(1-(6-(2-(hydroxy-methyl)morpholino)pyrimidin-4-yl)-1H-indazol-6-yl)spiro[2.3]hexane-5-carbonitrile]", "IC50": 2.9}, {"smiles": "C[C@@H]1CN(c2cc(-n3ncc4ccc(C5(C#N)CC6(CC6)C5)cc43)ncn2)C[C@H](C)[C@]1(C)O", "note": "[Example 17, 5-(1-(6-((3S,4s,5R and 3R,4s,5S)-4-hydroxy-3,4,5-trimethylpiperidin-1-yl)pyrimidin-4-yl)-1H-indazol-6-yl)spiro[2.3]hexane-5-carbonitrile]", "IC50": 8.9}, {"smiles": "CC(C)(O)C12CC(C1)N(c1cc(-n3ncc4cnc(C5(C#N)CC6(CC6)C5)cc43)ncn1)C2", "note": "[Example 18, 5-(1-(6-(4-(2-hydroxypropan-2-yl)-2-azabicyclo[2.1.1]hexan-2-yl)pyrimidin-4-yl)-1H-pyrazolo[4,3-c]pyridin-6-yl)spiro[2.3]hexane-5-carbonitrile]", "IC50": 19.2}, {"smiles": "CC(C)(O)[C@@H]1CCN(c2cc(-n3ncc4cnc(C5(C#N)CC6(CC6)C5)cc43)ncn2)C1", "note": "[Example 19, (R)-5-(1-(6-(3-(2-hydroxypropan-2-yl)pyrrolidin-1-yl)pyrimidin-4-yl)-1H-pyrazolo[4,3-c]pyridin-6-yl)spiro[2.3]hexane-5-carbonitrile]", "IC50": 10.7}, {"smiles": "COCc1nc(N2CC3(C(C)(C)O)CC2C3)cc(-n2ncc3ccc(C4(C#N)CC5(CC5)C4)cc32)n1", "note": "[Example 20, 5-(1-(6-(4-(2-hydroxypropan-2-yl)-2-azabicyclo[2.1.1]hexan-2-yl)-2-(methoxy-methyl)pyrimidin-4-yl)-1H-indazol-6-yl)spiro[2.3]hexane-5-carbonitrile]", "IC50": 16.2}, {"smiles": "COCc1nc(N2CCN(C3COC3)[C@@H](C)C2)cc(-n2ncc3ccc(C4(C#N)CC5(CC5)C4)cc32)n1", "note": "[Example 21, (S)-5-(1-(2-(methoxymethyl)-6-(3-methyl-4-(oxetan-3-yl)piperazin-1-yl)pyrimidin-4-yl)-1H-indazol-6-yl)spiro[2.3]hexane-5-carbonitrile]", "IC50": 10.9}, {"smiles": "CC(C)(O)C1CN(c2cc(-n3ncc4ccc(C5(C#N)CC6(CC6)C5)cc43)ncn2)C1", "note": "[Example 24, 5-(1-(6-(3-(2-hydroxypropan-2-yl)azetidin-1-yl)pyrimidin-4-yl)-1H-indazol-6-yl)spiro[2.3]hexane-5-carbonitrile]", "IC50": 2.6}, {"smiles": "CC1(O)CN(c2cc(-n3ncc4ccc(C5(C#N)CC6(CC6)C5)cc43)ncn2)C1", "note": "[Example 25, 5-(1-(6-(3-hydroxy-3-methylazetidin-1-yl)pyrimidin-4-yl)-1H-indazol-6-yl)spiro[2.3]hexane-5-carbonitrile]", "IC50": 2.9}, {"smiles": "COC1(C)CN(c2cc(-n3ncc4ccc(C5(C#N)CC6(CC6)C5)cc43)ncn2)C1", "note": "[Example 26, 5-(1-(6-(3-methoxy-3-methylazetidin-1-yl)pyrimidin-4-yl)-1H-indazol-6-yl)spiro[2.3]hexane-5-carbonitrile]", "IC50": 4.3}, {"smiles": "N#CC1(c2ccc3cnn(-c4cc(N5CC(O)(C6CC6)C5)ncn4)c3c2)CC2(CC2)C1", "note": "[Example 27, 5-(1-(6-(3-cyclopropyl-3-hydroxyazetidin-1-yl)pyrimidin-4-yl)-1H-indazol-6-yl)spiro[2.3]hexane-5-carbonitrile]", "IC50": 7.4}, {"smiles": "CN1CCOC2(C1)CN(c1cc(-n3ncc4ccc(C5(C#N)CC6(CC6)C5)cc43)ncn1)C2", "note": "[Example 28, 5-(1-(6-(8-methyl-5-oxa-2,8-diazaspiro[3.5]nonan-2-yl)pyrimidin-4-yl)-1H-indazol-6-yl)spiro[2.3]hexane-5-carbonitrile]", "IC50": 1.3}, {"smiles": "CNc1nc(N2CC3(C(C)(C)O)CC2C3)cc(-n2ncc3ccc(C4(C#N)CC5(CC5)C4)cc32)n1", "note": "[Example 29, 5-(1-(6-(4-(2-hydroxypropan-2-yl)-2-azabicyclo[2.1.1]hexan-2-yl)-2-(methylamino)pyrimidin-4-yl)-1H-indazol-6-yl)spiro[2.3]hexane-5-carbonitrile]", "IC50": 16.7}, {"smiles": "COc1nc(N2CC3(C(C)(C)O)CC2C3)cc(-n2ncc3ccc(C4(C#N)CC5(CC5)C4)cc32)n1", "note": "[Example 30, 5-(1-(6-(4-(2-hydroxypropan-2-yl)-2-azabicyclo[2.1.1]hexan-2-yl)-2-methoxypyrimidin-4-yl)-1H-indazol-6-yl)spiro[2.3]hexane-5-carbonitrile]", "IC50": 12.3}, {"smiles": "C[C@H]1CN(c2cc(-n3ncc4ccc(C5(C#N)CC6(CC6)C5)cc43)ccn2)CCN1C1COC1", "note": "[Example 31, (S)-5-(1-(2-(3-methyl-4-(oxetan-3-yl)piperazin-1-yl)pyridin-4-yl)-1H-indazol-6-yl)spiro[2.3]hexane-5-carbonitrile]", "IC50": 11.3}, {"smiles": "N#CC1(c2ccc3cnn(-c4ccnc(N5CC6(CO)CC5C6)c4)c3c2)CC2(CC2)C1", "note": "[Example 32, 5-(1-(2-(4-(hydroxymethyl)-2-azabicyclo[2.1.1]hexan-2-yl)pyridin-4-yl)-1H-indazol-6-yl)spiro[2.3]hexane-5-carbonitrile]", "IC50": 10}, {"smiles": "CC1(O)CC2(CN(c3cc(-n4ncc5ccc(C6(C#N)CC7(CC7)C6)cc54)ncn3)C2)C1", "note": "(centres unmarked) [Example 33, 5-(1-(6-(6-hydroxy-6-methyl-2-azaspiro[3.3]heptan-2-yl)pyrimidin-4-yl)-1H-indazol-6-yl)spiro[2.3]hexane-5-carbonitrile]", "IC50": 1}, {"smiles": "C[C@H]1CN(c2cc(-n3ncc4ccc(C5(C#N)CC6(CC6)C5)cc43)ncn2)CCO1", "note": "[Example 42, (S)-5-(1-(6-(2-methyl-morpholino)pyrimidin-4-yl)-1H-indazol-6-yl)spiro[2.3]hexane-5-carbonitrile]", "IC50": 5.6}, {"smiles": "CC(C)(O)[C@@H]1CN(c2cc(-n3ncc4ccc(C5(C#N)CC6(CC6)C5)cc43)ncn2)CCO1", "note": "[Example 43, (S)-5-(1-(6-(2-(2-hydroxypropan-2-yl)morpholino)pyrimidin-4-yl)-1H-indazol-6-yl)spiro[2.3]hexane-5-carbonitrile]", "IC50": 0.9}, {"smiles": "N#CC1(c2ccc3cnn(-c4cc(N5CCC(C6COC6)CC5)ncn4)c3c2)CC2(CC2)C1", "note": "[Example 44, 5-(1-(6-(4-(oxetan-3-yl)piperidin-1-yl)pyrimidin-4-yl)-1H-indazol-6-yl)spiro[2.3]hexane-5-carbonitrile]", "IC50": 5}, {"smiles": "N#CC1(c2ccc3cnn(-c4cc(N5CCN6CCOC[C@@H]6C5)ncn4)c3c2)CC2(CC2)C1", "note": "[Example 45, (S)-5-(1-(6-(hexahydropyrazino[2,1-c][1,4]oxazin-8(1H)-yl)pyrimidin-4-yl)-1H-indazol-6-yl)spiro[2.3]hexane-5-carbonitrile]", "IC50": 2}, {"smiles": "N#CC1(c2ccc3cnn(-c4cc(N5CCN6CCOC[C@H]6C5)ncn4)c3c2)CC2(CC2)C1", "note": "[Example 46, (R)-5-(1-(6-(hexahydropyrazino[2,1-c][1,4]oxazin-8(1H)-yl)pyrimidin-4-yl)-1H-indazol-6-yl)spiro[2.3]hexane-5-carbonitrile]", "IC50": 7}, {"smiles": "Cc1nc(N2CCN3CCOC[C@@H]3C2)cc(-n2ncc3ccc(C4(C#N)CC5(CC5)C4)cc32)n1", "note": "[Example 47, (S)-5-(1-(6-(hexahydropyrazino[2,1-c][1,4]oxazin-8(1H)-yl)-2-methylpyrimidin-4-yl)-1H-indazol-6-yl)spiro[2.3]hexane-5-carbonitrile]", "IC50": 3.2}, {"smiles": "Cc1nc(N2CCN3CCOC[C@@H]3C2)cc(-n2ncc3cnc(C4(C#N)CC5(CC5)C4)cc32)n1", "note": "[Example 48, (S)-5-(1-(6-(hexahydropyrazino[2,1-c][1,4]oxazin-8(1H)-yl)-2-methylpyrimidin-4-yl)-1H-pyrazolo[4,3-c]pyridin-6-yl)spiro[2.3]hexane-5-carbonitrile]", "IC50": 20.2}]}]}
